Consider 18 molecules from ChEMBL document CHEMBL1147141, “Potent nonpeptide antagonists of the bradykinin B1 receptor: structure-activity relationship studies with novel diaminochroman carboxamides” (J Med Chem, 2007).

For assay [1], the target named is T1, B1 bradykinin receptor (Homo sapiens, UniProt P46663).
T1 sequence (P46663 whole entry): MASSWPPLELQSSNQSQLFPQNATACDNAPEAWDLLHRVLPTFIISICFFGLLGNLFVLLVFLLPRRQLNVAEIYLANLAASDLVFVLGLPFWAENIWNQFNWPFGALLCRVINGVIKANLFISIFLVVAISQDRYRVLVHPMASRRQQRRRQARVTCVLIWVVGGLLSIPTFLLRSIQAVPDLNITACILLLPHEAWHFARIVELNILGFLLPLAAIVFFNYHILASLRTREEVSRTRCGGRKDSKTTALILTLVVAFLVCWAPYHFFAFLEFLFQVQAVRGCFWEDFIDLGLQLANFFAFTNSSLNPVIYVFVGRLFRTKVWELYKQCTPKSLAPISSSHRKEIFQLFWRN
The experiment in a line: Antagonist activity at human bradykinin B1 receptor expressed in CHOD cells assessed as effect on DAK-induced calcium flux. The class given is functional, cell-based. (Calcium assays in cells follow changes in intracellular calcium, usually with a dye or a luminescent sensor.)

Assay [2] concerns the target T1, B1 bradykinin receptor. The experiment in a line: Displacement of [3H]DAK from human bradykinin B1 receptor expressed in CHOD cells. Format: cell-based. (Loss of bound radioactivity is the signal in a displacement assay; it reports binding, not function.)

In general, IC50 refers to the point on the concentration scale where inhibition reaches its midpoint. As a reminder, the Ki is the equilibrium dissociation constant of an inhibitor or competing ligand from its target.

For the molecule `CC(C)NCc1ccc2c(c1)OCC[C@H]2NC(=O)C[C@@H](NS(=O)(=O)c1ccc2ccccc2c1)c1ccccc1`, on B1 bradykinin receptor [1], the IC50 is 45.9 nM (antagonist). On B1 bradykinin receptor [2], the Ki is 8.3 nM (antagonist).
On to `CC(C)(C)NCc1ccc2c(c1)OCC[C@H]2NC(=O)C[C@@H](NS(=O)(=O)c1ccc(F)c(Cl)c1)c1ccccc1`, for which the IC50 at B1 bradykinin receptor [1] is 203 nM (antagonist). For the same molecule, the Ki at B1 bradykinin receptor [2] is given as 25.2 nM (antagonist).
For `CC(C)(C)NCc1ccc2c(c1)OCC[C@H]2NC(=O)C[C@@H](NS(=O)(=O)c1cccc(C(F)(F)F)c1)c1ccc(F)cc1`, the IC50 at B1 bradykinin receptor [1] is reported as 9.9 nM (antagonist). Further, on B1 bradykinin receptor [2], the Ki is listed as 4.8 nM (antagonist).
On the same counts, the results for `CC(C)(C)NCc1ccc2c(c1)OCC[C@H]2NC(=O)C[C@@H](NS(=O)(=O)c1ccc(C(F)(F)F)cc1)c1ccccc1` are 330 nM (antagonist) and 77.6 nM (antagonist).
On the same counts, the results for `CC(C)(C)NCc1ccc2c(c1)OCC[C@H]2NC(=O)C[C@@H](NS(=O)(=O)c1ccc(Cl)c(Cl)c1)c1ccc(F)cc1` are 9.6 nM (antagonist) and 5 nM (antagonist).
On the same counts, the results for `O=C(C[C@@H](NS(=O)(=O)c1ccc2ccccc2c1)c1ccccc1)N[C@@H]1CCOc2cc(CN3CCOCC3)ccc21` are 10.9 nM (antagonist) and 3.7 nM (antagonist).
Take `NCc1ccc2c(c1)OCC[C@H]2NC(=O)C[C@@H](NS(=O)(=O)c1ccc2ccccc2c1)c1ccccc1`: the IC50 on B1 bradykinin receptor [1] is 352 nM (antagonist). Besides, the Ki at B1 bradykinin receptor [2] is reported as 308 nM (antagonist).
On the same counts, the results for `CC(C)(C)NCc1ccc2c(c1)OCC[C@H]2NC(=O)C[C@@H](NS(=O)(=O)c1ccccc1Cl)c1ccccc1` are 2030 nM (antagonist) and 393 nM (antagonist).
For `CNCc1ccc2c(c1)OCC[C@H]2NC(=O)C[C@@H](NS(=O)(=O)c1ccc2ccccc2c1)c1ccccc1`, the 50% inhibitory concentration (IC50) at B1 bradykinin receptor [1] is given as 212 nM (antagonist). In addition, the Ki at B1 bradykinin receptor [2] is listed as 138 nM (antagonist).
For `CC(C)(C)NCc1ccc2c(c1)OCC[C@H]2NC(=O)C[C@@H](NS(=O)(=O)c1ccc(Cl)cc1)c1ccccc1` the same measures were 580 nM (antagonist) and 132 nM (antagonist).
On to `C[C@@H]1CCC[C@H](C)N1Cc1ccc2c(c1)OCC[C@H]2NC(=O)C[C@@H](NS(=O)(=O)c1ccc2ccccc2c1)c1ccccc1`, for which the IC50 at B1 bradykinin receptor [1] is on record as 96.3 nM (antagonist). Moreover, at B1 bradykinin receptor [2], the Ki is 13.4 nM (antagonist).
`O=C(C[C@@H](NS(=O)(=O)c1cccc(C(F)(F)F)c1)c1ccc(F)cc1)N[C@@H]1CCOc2cc(CNC3CCC3)ccc21`: on B1 bradykinin receptor [1], the IC50 is recorded as 46.2 nM (antagonist). Moreover, the Ki at B1 bradykinin receptor [2] is reported as 10 nM (antagonist).
Take `CC(C)(C)NCc1ccc2c(c1)OCC[C@H]2NC(=O)C[C@@H](NS(=O)(=O)c1cccc(Cl)c1)c1ccccc1`: the IC50 on B1 bradykinin receptor [1] is 113 nM (antagonist). At B1 bradykinin receptor [2], the Ki is 27.7 nM (antagonist).
As for `O=C(C[C@@H](NS(=O)(=O)c1ccc2ccccc2c1)c1ccccc1)N[C@@H]1CCOc2cc(CO)ccc21`, the IC50 on B1 bradykinin receptor [1] is greater than 4000 nM. Besides, the Ki at B1 bradykinin receptor [2] was greater than 50000 nM.
For the molecule `CCNCc1ccc2c(c1)OCC[C@H]2NC(=O)C[C@@H](NS(=O)(=O)c1ccc2ccccc2c1)c1ccccc1`, on B1 bradykinin receptor [1], the half-inhibitory concentration (IC50) is given as 60.2 nM (antagonist). In addition, the Ki on B1 bradykinin receptor [2] was 8.9 nM (antagonist).
Turning to `CC(C)(C)NCc1ccc2c(c1)OCC[C@H]2NC(=O)C[C@@H](NS(=O)(=O)c1cccc(C(F)(F)F)c1)c1ccccc1`, at B1 bradykinin receptor [1], the IC50 is listed as 78.4 nM (antagonist). In addition, the Ki at B1 bradykinin receptor [2] is listed as 17.9 nM (antagonist).
As for `CC(C)(C)NCc1ccc2c(c1)OCC[C@H]2NC(=O)C[C@@H](NS(=O)(=O)c1cc(Cl)c(F)cc1F)c1ccccc1`, the half-maximal inhibitory concentration (IC50) on B1 bradykinin receptor [1] is 127 nM (antagonist). Also, the Ki at B1 bradykinin receptor [2] was 20.6 nM (antagonist).
As to `CC(C)(C)NCc1ccc2c(c1)OCC[C@H]2NC(=O)C[C@@H](NS(=O)(=O)c1ccc(Cl)c(Cl)c1)c1ccccc1`, the IC50 at B1 bradykinin receptor [1] is 24.3 nM (antagonist). In addition, the inhibitory constant (Ki) at B1 bradykinin receptor [2] is listed as 7.6 nM (antagonist).
